We go through three compounds from US20110171675A1, “FRET-BASED MEMBRANE-TYPE 1 MATRIX METALLOPROTEINASE BIOSENSOR AND METHODS FOR USING THE SAME” (priority 2008, published 2011).

Assay [1] has as its system Src. Put plainly: PDGF-induced Src activation in MEFs (Src FRET biosensor). The assay is classed as cell-based, mouse. An excerpt:
Unexpectedly, PDGF-induced Src activation was global without a clear spatial pattern at subcellular levels, even when MEFs were constrained on fibronectin stripes to have directional migration.

Assay [2] has as its system Src. Put plainly: VEGF-induced membrane Src activation in live endothelial cells (FRET). The assay is classed as cell-based. The note with it: YPet-based membrane-targeted Src biosensor. An excerpt:
Both VEGF and Src are critical for angiogenesis. […] However, VEGF-induced Src activation was difficult to detect using an ECFP/Citrine-based biosensor. […] Thus, the YPet-based Src biosensor was targeted to the plasma membrane by fusing a prenylation substrate sequence (Lys-Lys-Lys-Lys-Lys-Lys-Ser-Lys-Thr-Lys-Cys-Val-Ile-Met; SEQ ID NO:9) from KRas to visualize the VEGF-induced membrane Src activation in live endothelial cells.

The test system of the next assay is Rac. Put plainly: PDGF-induced Rac activity in MEFs (Rac FRET biosensor). The class given is cell-based, mouse. The text has this:
The improved ECFP/YPet biosensor was further used in the analysis of molecular hierarchy in cell migration. […] However, the spatiotemporal interrelationship between Src and Rac activation has not been shown. Thus, the improved Rac biosensor was employed to visualize the spatiotemporal Rac activity during cell migration in response to platelet-derived growth factor (PDGF). The role of Src in regulating this Rac activation was also investigated. […] PDGF induced a strong Rac activation at membrane ruffles and a moderate overall activation of Rac in the whole cell. […] To further characterize the spatiotemporal Rac activity, MEF cells transfected with the Rac biosensor were seeded atop fibronectin-coated stripes (10 μm width) to constrain the cell adhesion and control the direction of cell migration. […] Again, the inhibition of Src by PP1 or Src/Yes/Fyn triple-knockout blocked the polarized Rac activity before and after PDGF stimulation.

SMILES strings stand for the structures.

Turning to `C=C1[C@@H](C)[C@H]2[C@H](Cc3ccccc3)NC(=O)[C@]23[C@H](OC(C)=O)/C=C/[C@@](C)(O)C(=O)[C@@H](C)C/C=C/[C@H]3[C@@H]1O` [CytoD], the “PDGF-induced Src activation” value in the assay with Src [1] (MEF cells transfected with RacV12) was “inhibited”; in the assay on Src [1] (MEFs, disruption of actin filaments), “blocked”.

Turning to `CC(C)c1cc(/C=C(\C#N)C(=O)NCCCc2ccccc2)cc(C(C)C)c1O` [SU1498], the “Effect of inhibitor on VEGF-induced FRET response” value in the assay with Src [2] is recorded as “abolished”.

For the compound `Cc1ccc(-c2nn(C(C)(C)C)c3ncnc(N)c23)cc1` [PP1], the “Effect of inhibitor on VEGF-induced FRET response” value in the assay with Src [2] is reported as “abolished”. The “Polarized Rac activity before and after PDGF stimulation” value with Rac (MEFs on fibronectin-coated stripes (10 μm width)) was “blocked”. Also, the “Basal and PDGF-induced Rac activity” value in the assay with Rac (MEFs pretreated with inhibitor, cultured on fibronectin) is “significantly inhibited”.
